Measurements published in patent US7732475B2, “Histone deacetylase inhibitors” (Takeda San Diego, Inc., priority 2005, dated 2010).

Target: HDAC2 (Homo sapiens, UniProt Q92769)
Assay: HDAC2 fluorescence inhibition assay (tBoc-Lys(Ac)-AMC)

Chain of HDAC2 (Q92769 with tags, fused parts or gaps): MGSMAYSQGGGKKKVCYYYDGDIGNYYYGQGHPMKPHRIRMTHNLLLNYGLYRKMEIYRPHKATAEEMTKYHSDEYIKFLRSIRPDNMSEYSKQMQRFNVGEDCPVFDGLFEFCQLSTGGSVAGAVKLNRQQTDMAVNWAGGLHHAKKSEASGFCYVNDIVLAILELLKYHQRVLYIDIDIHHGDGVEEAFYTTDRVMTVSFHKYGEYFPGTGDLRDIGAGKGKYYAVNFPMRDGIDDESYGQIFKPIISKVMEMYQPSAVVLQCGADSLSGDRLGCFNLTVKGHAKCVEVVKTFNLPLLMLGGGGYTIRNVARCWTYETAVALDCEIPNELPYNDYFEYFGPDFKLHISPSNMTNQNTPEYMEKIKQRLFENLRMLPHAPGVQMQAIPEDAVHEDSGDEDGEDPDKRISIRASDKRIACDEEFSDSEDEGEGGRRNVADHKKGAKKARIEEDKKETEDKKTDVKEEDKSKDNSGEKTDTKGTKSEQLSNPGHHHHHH

SMILES	IC50 [nM]
Nc1ccccc1NC(=O)c1ccc(Cn2cc3cc(C(F)(F)F)ccc3n2)cc1 [Example 120, N-(2-aminophenyl)-4-((5-(trifluoromethyl)-2H-indazol-2-yl)methyl)benzamide]	50 to 100
Nc1ccccc1NC(=O)c1ccc(Cn2ncc3cc([N+](=O)[O-])ccc32)cc1 [Example 5, N-(2-aminophenyl)-4-((5-nitro-1H-indazol-1-yl)methyl)benzamide]	≤ 50
Nc1ccn(Cc2ccc(C(=O)Nc3ccccc3N)cc2)n1 [Example 133, 4-((3-amino-1H-pyrazol-1-yl)methyl)-N-(2-aminophenyl)benzamide]	100 to 500
Nc1ccccc1NC(=O)c1ccc(Cn2cc(C(=O)NCCN3CCCCC3)cn2)cc1 [Example 155, 1-(4-(2-aminophenylcarbamoyl)benzyl)-N-(2-(piperidin-1-yl)ethyl)-1H-pyrazole-4-carboxamide]	≤ 50
CC(=O)Nc1ccc2c(cnn2Cc2ccc(C(=O)Nc3ccccc3N)s2)c1 [Example 110, 5-((5-acetamido-1H-indazol-1-yl)methyl)-N-(2-aminophenyl)thiophene-2-carboxamide]	50 to 100
CC(=O)Nc1ccc2nn(Cc3ccc(C(=O)Nc4ccccc4N)cc3)cc2c1 [Example 4, 4-((5-acetamido-2H-indazol-2-yl)methyl)-N-(2-aminophenyl)benzamide]	≤ 50
Cc1c2ccc(C(F)(F)F)cc2nn1Cc1ccc(C(=O)Nc2ccccc2N)cc1 [Example 92, N-(2-aminophenyl)-4-((3-methyl-6-(trifluoromethyl)-2H-indazol-2-yl)methyl)benzamide]	50 to 100
CC(Cn1ncc2ccccc21)c1ccc(C(=O)Nc2ccccc2N)cc1 (stereo not shown) [Example 39, 4-(1-(1H-indazol-1-yl)propan-2-yl)-N-(2-aminophenyl)benzamide]	≥ 500
COc1cccc2cnn(Cc3ccc(C(=O)Nc4ccccc4N)cc3)c12 [Example 84, N-(2-aminophenyl)-4-((7-methoxy-1H-indazol-1-yl)methyl)benzamide]	100 to 500
Nc1ccccc1NC(=O)c1ccc(Cn2ncc3c(Cl)cccc32)cc1 [Example 42, N-(2-aminophenyl)-4-((4-chloro-1H-indazol-1-yl)methyl)benzamide]	≤ 50
Nc1ccccc1NC(=O)c1ccc(Cn2nc3ccc(C(F)(F)F)cc3c2N)cc1 [Example 62, 4-((3-amino-5-(trifluoromethyl)-2H-indazol-2-yl)methyl)-N-(2-aminophenyl)benzamide]	≤ 50
Nc1ccccc1NC(=O)c1ccc(Cn2cc3c(C(F)(F)F)cccc3n2)cc1 [Example 118, N-(2-aminophenyl)-4-((4-(trifluoromethyl)-2H-indazol-2-yl)methyl)benzamide]	50 to 100
Nc1ccccc1NC(=O)c1ccc(Cn2ncc3cccc(F)c32)cc1 [Example 46, N-(2-aminophenyl)-4-((7-fluoro-1H-indazol-1-yl)methyl)benzamide]	50 to 100
Nc1ccccc1NC(=O)c1ccc(CCn2ncc3ccccc32)cc1 [Example 40, 4-(2-(1H-indazol-1-yl)ethyl)-N-(2-aminophenyl)benzamide]	100 to 500
COc1ccc2nn(Cc3ccc(C(=O)Nc4ccccc4N)cc3)cc2c1 [Example 79, N-(2-aminophenyl)-4-((5-methoxy-2H-indazol-2-yl)methyl)benzamide]	≤ 50
Nc1ccccc1NC(=O)c1ccc(Cn2cc3cc(NC(=O)OCc4ccccc4)ccc3n2)cc1 [Example 16, Benzyl 2-(4-((2-aminophenyl)carbamoyl)benzyl)-2H-indazol-5-ylcarbamate]	≤ 50
COc1cccc2nn(Cc3ccc(C(=O)Nc4ccccc4N)cc3)cc12 [Example 83, N-(2-aminophenyl)-4-((4-methoxy-2H-indazol-2-yl)methyl)benzamide]	≤ 50
COc1cc2nn(Cc3ccc(C(=O)Nc4ccccc4N)cc3)cc2cc1O [Example 97, N-(2-aminophenyl)-4-((5-hydroxy-6-methoxy-2H-indazol-2-yl)methyl)benzamide]	50 to 100
Nc1ccccc1NC(=O)c1ccc(Cn2ncc3cc(NC(=O)c4ccccc4)ccc32)cc1 [Example 6, 4-((5-benzamido-1H-indazol-1-yl)methyl)-N-(2-aminophenyl)benzamide]	≤ 50
CN(C)CCNC(=O)c1cnn(Cc2ccc(C(=O)Nc3ccccc3N)cc2)c1 [Example 140, 1-(4-(2-aminophenylcarbamoyl)benzyl)-N-(2-(dimethylamino)ethyl)-1H-pyrazole-4-carboxamide]	50 to 100
Cc1cnn(Cc2ccc(C(=O)Nc3cc(-c4cccs4)ccc3N)cc2)c1 [Example 115, N-(2-amino-5-(thiophen-2-yl)phenyl)-4-((4-methyl-1H-pyrazol-1-yl)methyl)benzamide]	≤ 50
Nc1ccccc1NC(=O)c1ccc(Cn2ncc3ccccc32)cc1 [Example 1, 4-((1H-indazol-1-yl)methyl)-N-(2-aminophenyl)benzamide]	≤ 50
Nc1ccccc1NC(=O)c1ccc(Cn2ncc3cc(NC(=O)OCc4cccnc4)ccc32)cc1 [Example 23, Pyridin-3-ylmethyl 1-(4-((2-aminophenyl)carbamoyl)benzyl)-1H-indazol-5-ylcarbamate]	≤ 50

SMILES	IC50 [nM]
Nc1ccccc1NC(=O)c1ccc(Cn2[nH]c3ccccc3c2=O)cc1 [Example 65, N-(2-aminophenyl)-4-((3-oxo-1H-indazol-2(3H)-yl)methyl)benzamide]	100 to 500
Cc1nn(Cc2ccc(C(=O)Nc3ccccc3N)cc2)c2cccc(F)c12 [Example 54, N-(2-aminophenyl)-4-((4-fluoro-3-methyl-1H-indazol-1-yl)methyl)benzamide]	100 to 500
Nc1ccccc1NC(=O)c1ccc(Cn2cc(C(=O)NCC3CC3)cn2)cc1 [Example 139, 1-(4-(2-aminophenylcarbamoyl)benzyl)-N-(cyclopropylmethyl)-1H-pyrazole-4-carboxamide]	50 to 100
COCCCNC(=O)c1cnn(Cc2ccc(C(=O)Nc3ccccc3N)cc2)c1 [Example 152, 1-(4-(2-aminophenylcarbamoyl)benzyl)-N-(3-methoxypropyl)-1H-pyrazole-4-carboxamide]	≤ 50
Cc1ccn(Cc2ccc(C(=O)Nc3ccccc3N)cc2)n1 [Example 123, N-(2-aminophenyl)-4-((3-methyl-1H-pyrazol-1-yl)methyl)benzamide]	100 to 500
Nc1ccccc1NC(=O)c1ccc(Cn2nc(Cl)c3ccccc32)cc1 [Example 60, N-(2-aminophenyl)-4-((3-chloro-1H-indazol-1-yl)methyl)benzamide]	50 to 100
CCOC(=O)c1cnn(Cc2ccc(C(=O)Nc3ccccc3N)cc2)c1 [Example 125, Ethyl 1-(4-(2-aminophenylcarbamoyl)benzyl)-1H-pyrazole-4-carboxylate]	50 to 100
Nc1ccccc1NC(=O)c1ccc(Cn2ncc3cc(NC(=O)OCc4ccccc4)ccc32)cc1 [Example 15, Benzyl 1-(4-((2-aminophenyl)carbamoyl)benzyl)-1H-indazol-5-ylcarbamate]	≤ 50
Nc1ccc(-c2cccs2)cc1NC(=O)c1ccc(Cn2cc3c(F)cc(F)cc3n2)cc1 [Example 112, N-(2-amino-5-(thiophen-2-yl)phenyl)-4-((4,6-difluoro-2H-indazol-2-yl)methyl)benzamide]	100 to 500
COc1cccc2c1cnn2Cc1ccc(C(=O)Nc2ccccc2N)cc1 [Example 85, N-(2-aminophenyl)-4-((4-methoxy-1H-indazol-1-yl)methyl)benzamide]	≤ 50
Nc1ccccc1NC(=O)c1ccc(Cn2nccc2N)cc1 [Example 132, 4-((5-amino-1H-pyrazol-1-yl)methyl)-N-(2-aminophenyl)benzamide]	≥ 500
Nc1ccc(-c2ccccc2)cc1NC(=O)c1ccc(Cn2cc3ccccc3n2)cc1 [Example 27, N-(4-Amino-biphenyl-3-yl)-4-indazol-2-ylmethyl-benzamide]	≤ 50
Nc1ccccc1NC(=O)c1ccc(Cn2ncc3ccccc32)s1 [Example 24, 5-((1H-Indazol-1-yl)methyl)-N-(2-aminophenyl)thiophene-2-carboxamide]	100 to 500
Nc1ccccc1NC(=O)c1ccc(Cn2cc3cccnc3n2)cc1 [Example 25, 4-((2H-Pyrazolo[3,4-b]pyridin-2-yl)methyl)-N-(2-aminophenyl)benzamide]	100 to 500
CC(=O)Nc1ccc2nn(Cc3ccc(C(=O)Nc4ccccc4N)cc3)c(C)c2c1 [Example 106, 4-((5-acetamido-3-methyl-2H-indazol-2-yl)methyl)-N-(2-aminophenyl)benzamide]	≤ 50
COc1cc2cnn(Cc3ccc(C(=O)Nc4ccccc4N)cc3)c2cc1OC [Example 99, N-(2-aminophenyl)-4-((5,6-dimethoxy-1H-indazol-1-yl)methyl)benzamide]	≤ 50
Cc1nn(Cc2ccc(C(=O)Nc3ccccc3N)cc2)c2cc(F)ccc12 [Example 68, N-(2-aminophenyl)-4-((6-fluoro-3-methyl-1H-indazol-1-yl)methyl)benzamide]	50 to 100
CCc1c2ccccc2nn1Cc1ccc(C(=O)Nc2ccccc2N)cc1 [Example 73, N-(2-aminophenyl)-4-((3-ethyl-2H-indazol-2-yl)methyl)benzamide]	100 to 500
Nc1ccccc1NC(=O)c1ccc(Cn2cc(C(=O)NCCCN3CCOCC3)cn2)cc1 [Example 154, 1-(4-(2-aminophenylcarbamoyl)benzyl)-N-(3-morpholinopropyl)-1H-pyrazole-4-carboxamide]	≤ 50
Cc1nn(Cc2ccc(C(=O)Nc3ccccc3N)cc2)c2ccc(C(F)(F)F)cc12 [Example 94, N-(2-aminophenyl)-4-((3-methyl-5-(trifluoromethyl)-1H-indazol-1-yl)methyl)benzamide]	50 to 100
Nc1ccccc1NC(=O)c1ccc(Cn2cccn2)cc1 [Example 31, 4-((1H-pyrazol-1-yl)methyl)-N-(2-aminophenyl)benzamide]	≥ 500
Nc1ccccc1NC(=O)c1ccc(Cn2ncc3c(C(F)(F)F)cccc32)cc1 [Example 117, N-(2-aminophenyl)-4-((4-(trifluoromethyl)-1H-indazol-1-yl)methyl)benzamide]	50 to 100
COc1cccc2cn(Cc3ccc(C(=O)Nc4ccccc4N)cc3)nc12 [Example 82, N-(2-aminophenyl)-4-((7-methoxy-2H-indazol-2-yl)methyl)benzamide]	50 to 100
